The values below are quoted from earlier work in US20220031840A1, “Method of Treatment” (HaemaLogix Pty Ltd, priority 2018, published 2022).

In the data set the test system is CXCL10. Conditions: elotuzumab phase I study; cited from earlier work.

For the substance “elotuzumab: antibody named as additional anti-cancer agent; phase I study cited (Zonder et al. 2012)”, the “Drug-induced change in CXCL10 levels” value is “drug-induced increases”.
